Data reported in the NIST ThermoML archive (doi:10.1007/s10765-011-1087-7).
± gives the expanded uncertainty stated by the source.

Tests used:
[1] = refractive index (Na D-line) (dimensionless); xn = mol fraction of the nth substance listed; settings: 101 kPa, Liquid
[2] = xn = mol fraction of the nth substance listed; settings: 298.15 K, 101 kPa, Liquid; for speed of sound: Pulse-echo method

CCCCCCC(C)O (stereo not given) [2-octanol] + Clc1cccc(Cl)c1
refractive index ([1]; 298.15 K, x2 = 0.0694): 1.4312 ± 0.0012
refractive index ([1]; 298.15 K, x2 = 0.1166): 1.4366 ± 0.0012
refractive index ([1]; 298.15 K, x2 = 0.1823): 1.4436 ± 0.0012
refractive index ([1]; 298.15 K, x2 = 0.2395): 1.4494 ± 0.0012
refractive index ([1]; 298.15 K, x2 = 0.3143): 1.4567 ± 0.0012
refractive index ([1]; 298.15 K, x2 = 0.379): 1.4631 ± 0.0012
refractive index ([1]; 298.15 K, x2 = 0.4488): 1.4698 ± 0.0012
refractive index ([1]; 298.15 K, x2 = 0.5084): 1.4758 ± 0.0012
refractive index ([1]; 298.15 K, x2 = 0.582): 1.4838 ± 0.0012
refractive index ([1]; 298.15 K, x2 = 0.6659): 1.4939 ± 0.0012
refractive index ([1]; 298.15 K, x2 = 0.7208): 1.5009 ± 0.0012
refractive index ([1]; 298.15 K, x2 = 0.7847): 1.5099 ± 0.0012
refractive index ([1]; 298.15 K, x2 = 0.8663): 1.5224 ± 0.0012
refractive index ([1]; 298.15 K, x2 = 0.9434): 1.5349 ± 0.0012
refractive index ([1]; 303.15 K, x2 = 0.0694): 1.4293 ± 0.0012
refractive index ([1]; 303.15 K, x2 = 0.1166): 1.4348 ± 0.0012
refractive index ([1]; 303.15 K, x2 = 0.1823): 1.4418 ± 0.0012
refractive index ([1]; 303.15 K, x2 = 0.2395): 1.4475 ± 0.0012
refractive index ([1]; 303.15 K, x2 = 0.3143): 1.4546 ± 0.0012
refractive index ([1]; 303.15 K, x2 = 0.379): 1.4608 ± 0.0012
refractive index ([1]; 303.15 K, x2 = 0.4488): 1.4677 ± 0.0012
refractive index ([1]; 303.15 K, x2 = 0.5084): 1.4738 ± 0.0012
refractive index ([1]; 303.15 K, x2 = 0.582): 1.4819 ± 0.0012
refractive index ([1]; 303.15 K, x2 = 0.6659): 1.4921 ± 0.0012
refractive index ([1]; 303.15 K, x2 = 0.7208): 1.4994 ± 0.0012
refractive index ([1]; 303.15 K, x2 = 0.7847): 1.5084 ± 0.0012
refractive index ([1]; 303.15 K, x2 = 0.8663): 1.5209 ± 0.0012
refractive index ([1]; 303.15 K, x2 = 0.9434): 1.5327 ± 0.0012
refractive index ([1]; 308.15 K, x2 = 0.0694): 1.4273 ± 0.0012
refractive index ([1]; 308.15 K, x2 = 0.1166): 1.4327 ± 0.0012
refractive index ([1]; 308.15 K, x2 = 0.1823): 1.4397 ± 0.0012
refractive index ([1]; 308.15 K, x2 = 0.2395): 1.4455 ± 0.0012
refractive index ([1]; 308.15 K, x2 = 0.3143): 1.4527 ± 0.0012
refractive index ([1]; 308.15 K, x2 = 0.379): 1.4589 ± 0.0012
refractive index ([1]; 308.15 K, x2 = 0.4488): 1.4658 ± 0.0012
refractive index ([1]; 308.15 K, x2 = 0.5084): 1.4718 ± 0.0012
refractive index ([1]; 308.15 K, x2 = 0.582): 1.4798 ± 0.0012
refractive index ([1]; 308.15 K, x2 = 0.6659): 1.4898 ± 0.0012
refractive index ([1]; 308.15 K, x2 = 0.7208): 1.4969 ± 0.0012
refractive index ([1]; 308.15 K, x2 = 0.7847): 1.5057 ± 0.0012
refractive index ([1]; 308.15 K, x2 = 0.8663): 1.518 ± 0.0012
refractive index ([1]; 308.15 K, x2 = 0.9434): 1.5298 ± 0.0012
speed of sound ([2]; x2 = 0.0694): 1300.1 ± 1.3 m/s
speed of sound ([2]; x2 = 0.1166): 1295.8 ± 1.3 m/s
speed of sound ([2]; x2 = 0.1823): 1290 ± 1.3 m/s
speed of sound ([2]; x2 = 0.2395): 1285.1 ± 1.3 m/s
speed of sound ([2]; x2 = 0.3143): 1278.7 ± 1.3 m/s
speed of sound ([2]; x2 = 0.379): 1273.3 ± 1.3 m/s
speed of sound ([2]; x2 = 0.4488): 1268 ± 1.3 m/s
speed of sound ([2]; x2 = 0.5084): 1263.7 ± 1.3 m/s
speed of sound ([2]; x2 = 0.582): 1258.9 ± 1.3 m/s
speed of sound ([2]; x2 = 0.6659): 1254.6 ± 1.3 m/s
speed of sound ([2]; x2 = 0.7208): 1252.4 ± 1.3 m/s
speed of sound ([2]; x2 = 0.7847): 1250.7 ± 1.3 m/s
speed of sound ([2]; x2 = 0.8663): 1250.4 ± 1.3 m/s
speed of sound ([2]; x2 = 0.9434): 1251.8 ± 1.3 m/s
viscosity ([2]; x2 = 0): 6.566 ± 0.4 mPa·s
mass density ([2]; x2 = 0.0694): 840.61 ± 0.53 kg/m3
viscosity ([2]; x2 = 0.0694): 5.146 ± 0.33 mPa·s
mass density ([2]; x2 = 0.1166): 857.54 ± 0.5 kg/m3
viscosity ([2]; x2 = 0.1166): 4.43 ± 0.29 mPa·s
mass density ([2]; x2 = 0.1823): 881.65 ± 0.45 kg/m3
viscosity ([2]; x2 = 0.1823): 3.7 ± 0.24 mPa·s
mass density ([2]; x2 = 0.2395): 903.41 ± 0.41 kg/m3
viscosity ([2]; x2 = 0.2395): 3.231 ± 0.22 mPa·s
mass density ([2]; x2 = 0.3143): 932.89 ± 0.36 kg/m3
viscosity ([2]; x2 = 0.3143): 2.754 ± 0.19 mPa·s
mass density ([2]; x2 = 0.379): 959.33 ± 0.31 kg/m3
viscosity ([2]; x2 = 0.379): 2.429 ± 0.17 mPa·s
mass density ([2]; x2 = 0.4488): 988.41 ± 0.26 kg/m3
viscosity ([2]; x2 = 0.4488): 2.138 ± 0.15 mPa·s
mass density ([2]; x2 = 0.5084): 1014.16 ± 0.27 kg/m3
viscosity ([2]; x2 = 0.5084): 1.934 ± 0.13 mPa·s
mass density ([2]; x2 = 0.582): 1047.42 ± 0.34 kg/m3
viscosity ([2]; x2 = 0.582): 1.715 ± 0.12 mPa·s
mass density ([2]; x2 = 0.6659): 1086.85 ± 0.42 kg/m3
viscosity ([2]; x2 = 0.6659): 1.505 ± 0.11 mPa·s
mass density ([2]; x2 = 0.7208): 1114.21 ± 0.48 kg/m3
viscosity ([2]; x2 = 0.7208): 1.394 ± 0.099 mPa·s
mass density ([2]; x2 = 0.7847): 1147.67 ± 0.55 kg/m3
viscosity ([2]; x2 = 0.7847): 1.279 ± 0.092 mPa·s
mass density ([2]; x2 = 0.8663): 1194.04 ± 0.65 kg/m3
viscosity ([2]; x2 = 0.8663): 1.151 ± 0.084 mPa·s
mass density ([2]; x2 = 0.9434): 1243.52 ± 0.76 kg/m3
viscosity ([2]; x2 = 0.9434): 1.065 ± 0.078 mPa·s
